Results on 2 compounds are retold here after patent publication US20240358672A1, “APPLICATION OF GENISTEIN AND ITS PHOSPHATE ESTER DERIVATIVE AND PHARMACEUTICAL COMPOSITION COMPRISING THE SAME” (National Taiwan University, priority 2023, published 2024).

One assay concerns C57BL/6J mice. The format is in vivo. The following applies: Δ^9-THC 1 mg/kg plus genistein 50 mg/kg or rimonabant 3 mg/kg. As for the experimental part:
FIG. 7A: Isometric tension recordings of isolated mice thoracic aortas were performed using a wire myograph. Vascular concentration-dependent relaxation was induced by acetylcholine (ACh) in pre-constricted mouse thoracic arteries. […] FIG. 7C: Luminex analysis of inflammatory cytokines in plasma of C57BL/6J mice treated with vehicle control, Δ^9-THC, or Δ^9-THC plus genistein. […] FIG. 7E: Effect of Δ^9-THC and genistein on NF-κB phosphorylation in mouse thoracic artery. Total cell lysates were prepared, and the expressions of phosphor-NF-κB were analyzed by ELISA (upper left). Superoxide dismutase (SOD) activity of serum from mouse (bottom left). The effect of Δ^9-THC and genistein on NF-κB phosphorylation in mouse thoracic artery tissues (n=5). Total cell lysates were prepared, and the expressions of NF-κB, phosphorylated NF-κB, and β-actin were analyzed by western blot analysis (right panel). FIG. 7F: The levels reduced glutathione (GSH), Oxidized glutathione (GSSG), Total glutathione (T-GSH) and GSH/GSSG in the serum samples of mice were detected. Plasma isolated from C57BL/6J mice (n=5) treated with vehicle control, Δ^9-THC, genistein, or their combination every day for 30 days was analyzed by the glutathione colorimetric assay kit (BioVision, K261).
Genistein also rescued the oxidative stress protective-related gene expression (FIG. 7D). In addition, NF-κB phosphorylation and SOD expression in mouse serum were also attenuated with genistein (FIG. 7E). Δ^9-THC administration decreased circulating levels of the antioxidant glutathione, which was ameliorated with genistein cotreatment (FIG. 7F).

Another assay addresses CB1 receptor (Homo sapiens, UniProt P21554). The assay can be described thus: GTPase-Glo assay (in vitro GTPase assay). The format is biochemical. The following applies: GTPase-Glo assay.

Each structure is given as a SMILES string.

CB1 receptor, sequence (P21554 whole entry): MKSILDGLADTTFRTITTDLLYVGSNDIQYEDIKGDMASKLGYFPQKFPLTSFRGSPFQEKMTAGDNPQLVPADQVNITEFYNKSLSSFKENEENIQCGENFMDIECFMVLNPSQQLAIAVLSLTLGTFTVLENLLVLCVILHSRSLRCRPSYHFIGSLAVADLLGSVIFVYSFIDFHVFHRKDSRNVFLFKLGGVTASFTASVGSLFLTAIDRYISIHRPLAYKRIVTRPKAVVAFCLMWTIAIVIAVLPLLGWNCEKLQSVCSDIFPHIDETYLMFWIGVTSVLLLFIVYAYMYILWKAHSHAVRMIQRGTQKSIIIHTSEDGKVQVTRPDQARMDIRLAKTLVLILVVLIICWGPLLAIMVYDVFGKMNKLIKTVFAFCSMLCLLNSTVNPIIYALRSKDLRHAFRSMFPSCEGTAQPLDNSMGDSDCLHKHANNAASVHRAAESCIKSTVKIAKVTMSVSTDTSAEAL

For `Cc1c(C(=O)NN2CCCCC2)nn(-c2ccc(Cl)cc2Cl)c1-c1ccc(Cl)cc1` [rimonabant], the “Δ^9-THC-induced mRNA expressions of inflammation-related genes in mouse thoracic artery tissues” value in the assay with C57BL/6J mice was “ameliorated”.

Take `C[C@H](NC(=O)C(C)(C)Oc1ccc(C(F)(F)F)cn1)[C@@H](Cc1ccc(Cl)cc1)c1cccc(C#N)c1` [taranabant]: the “GTP turnover compared with Apo” value at CB1 receptor is on record as “decrease GTP turnover”.
